Assay results taken from US20250186437A1, “CARBOLINE COMPOUNDS AND USE THEREOF” (PTC Therapeutics, Inc., priority 2021, published 2025).
pIC50: −log10 of the molar value.

Each compound was assayed on MOLM-13 cells (assay: MOLM-13 Cell Proliferation Assay (indicator of DHODH inhibition)). Conditions: Homo sapiens, 72 Hours of culture, CellTiter-Glo, no uridine.
Assay type: cell-based
In short: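 Low-passage MOLM-13 cells (10^4/well) in RPMI 1640 + 10% FBS exposed to compound (0.5% DMSO final) for 72 h at 37 °C, 5% CO2. Viability read by CellTiter-Glo luminescence; growth reflects de novo pyrimidine synthesis dependent on DHODH.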
For `N#Cc1ccc(C2c3[nH]c4c(F)cc(Cl)cc4c3CCN2c2ncc(F)cn2)cc1` (stereo not shown) [Compound 33, 4-[6-chloro-8-fluoro-2-(5-fluoropyrimidin-2-yl)-2,3,4,9-tetrahydro-1H-pyrido[3,4-b]indol-1-yl]benzonitrile], the pIC50 was 6.92. For `Cc1nc(C)nc(N2CCc3c([nH]c4ccc(Cl)cc34)C2c2ccc(Cl)cc2F)n1` (stereo not shown) [Compound 468, 6-chloro-1-(4-chloro-2-fluorophenyl)-2-(4,6-dimethyl-1,3,5-triazin-2-yl)-2,3,4,9-tetrahydro-1H-pyrido[3,4-b]indole], the pIC50 was 8.28. Compound `Cc1ccc(C2c3[nH]c4ccc(-n5nccn5)cc4c3CCN2c2nccc(C(F)(F)F)n2)cc1` (stereo not shown) [Compound 287, 1-(4-methylphenyl)-6-(2H-1,2,3-triazol-2-yl)-2-[4-(trifluoromethyl)pyrimidin-2-yl]-2,3,4,9-tetrahydro-1H-pyrido[3,4-b]indole] has a pIC50 of 8.54. `Cc1nc(C)nc(N2CCc3c([nH]c4ccc(Cl)cc34)C2c2cnc(N3CC4CC3CO4)nc2)n1` (stereo not shown) [Compound 336, 6-chloro-2-(4,6-dimethyl-1,3,5-triazin-2-yl)-1-[2-(2-oxa-5-azabicyclo[2.2.1]heptan-5-yl)pyrimidin-5-yl]-2,3,4,9-tetrahydro-1H-pyrido[3,4-b]indole] gave a pIC50 of 7.28. In the case of `CC(C)c1ccc(C2c3[nH]c4cc(F)c(Cl)cc4c3CCN2c2nccc(Cl)n2)cc1` (stereo not shown) [Compound 53, 6-chloro-2-(4-chloropyrimidin-2-yl)-7-fluoro-1-[4-(propan-2-yl)phenyl]-2,3,4,9-tetrahydro-1H-pyrido[3,4-b]indole], the pIC50 was 8.11. `Fc1cnc(N2CCc3c([nH]c4cc(F)c(Cl)cc34)C2c2ccc(C3CC3)cc2)nc1` (stereo not shown) [Compound 31, 6-chloro-1-(4-cyclopropylphenyl)-7-fluoro-2-(5-fluoropyrimidin-2-yl)-2,3,4,9-tetrahydro-1H-pyrido[3,4-b]indole] showed a pIC50 of 7.62. In the case of `CN(C)c1ncc(C2c3[nH]c4cc(F)c(Cl)cc4c3CCN2c2nccc(C(F)(F)F)n2)cc1F` (stereo not shown) [Compound 158, 5-{6-chloro-7-fluoro-2-[4-(trifluoromethyl)pyrimidin-2-yl]-2,3,4,9-tetrahydro-1H-pyrido[3,4-b]indol-1-yl}-3-fluoro-N,N-dimethylpyridin-2-amine], the pIC50 was 8.01. Compound `N#Cc1cc(C(F)(F)F)nc(N2CCc3c([nH]c4ccc(Cl)cc34)[C@@H]2c2cnc(N3CCOCC3)nc2)n1` [Compound 434, 2-{(1S)-6-chloro-1-[2-(morpholin-4-yl)pyrimidin-5-yl]-1,3,4,9-tetrahydro-2H-pyrido[3,4-b]indol-2-yl}-6-(trifluoromethyl)pyrimidine-4-carbonitrile] has a pIC50 of 8.92. `CC(C)c1ccnc(N2CCc3c([nH]c4cc(F)c(Cl)cc34)C2c2ccc(F)cc2)n1` (stereo not shown) [Compound 23, 6-chloro-7-fluoro-1-(4-fluorophenyl)-2-[4-(propan-2-yl)pyrimidin-2-yl]-2,3,4,9-tetrahydro-1H-pyrido[3,4-b]indole] gave a pIC50 of 7.34. Work on `Cc1ccc([C@H]2c3[nH]c4ccc(Cl)cc4c3CCN2c2nc(N3CCOCC3)nc(C(F)(F)F)n2)c(F)c1F` [Compound 436, (1S)-6-chloro-1-(2,3-difluoro-4-methylphenyl)-2-[4-(morpholin-4-yl)-6-(trifluoromethyl)-1,3,5-triazin-2-yl]-2,3,4,9-tetrahydro-1H-pyrido[3,4-b]indole] yielded a pIC50 of 9.22. `C=Cc1ccc(C2c3[nH]c4cc(F)c(Cl)cc4c3CCN2c2ncc(F)cn2)cc1` (stereo not shown) [Compound 79, 6-chloro-1-(4-ethenylphenyl)-7-fluoro-2-(5-fluoropyrimidin-2-yl)-2,3,4,9-tetrahydro-1H-pyrido[3,4-b]indole] gave a pIC50 of 7.68. In the case of `Cc1ccc([C@H]2c3[nH]c4ccc(Cl)cc4c3CCN2c2nc(CO)nc(C(F)(F)F)n2)c(F)c1F` [Compound 521, {4-[(1S)-6-chloro-1-(2,3-difluoro-4-methylphenyl)-1,3,4,9-tetrahydro-2H-pyrido[3,4-b]indol-2-yl]-6-(trifluoromethyl)-1,3,5-triazin-2-yl}methanol], the pIC50 was 8.48. In the case of `Fc1ccc(C2c3[nH]c4cc(F)c(Cl)cc4c3CCN2c2nccc(C(F)(F)F)n2)cc1` (stereo not shown) [Compound 24, 6-chloro-7-fluoro-1-(4-fluorophenyl)-2-[4-(trifluoromethyl)pyrimidin-2-yl]-2,3,4,9-tetrahydro-1H-pyrido[3,4-b]indole], the pIC50 was 7.75. Compound `Cc1cnc(N2CCc3c([nH]c4cc(F)c(Cl)cc34)C2c2ccc(C)c(F)c2F)nc1` (stereo not shown) [Compound 136, 6-chloro-1-(2,3-difluoro-4-methylphenyl)-7-fluoro-2-(5-methylpyrimidin-2-yl)-2,3,4,9-tetrahydro-1H-pyrido[3,4-b]indole] has a pIC50 of 8.12. Compound `Oc1cc(Cl)ccc1C1c2[nH]c3ccc(Cl)cc3c2CCN1c1nccc(C(F)(F)F)n1` (stereo not shown) [Compound 222, 5-chloro-2-{6-chloro-2-[4-(trifluoromethyl)pyrimidin-2-yl]-2,3,4,9-tetrahydro-1H-pyrido[3,4-b]indol-1-yl}phenol] has a pIC50 of 8.46. `Cc1ccc([C@H]2c3[nH]c4ccc(Cl)cc4c3CCN2c2nc(C(F)F)nc(C(F)(F)F)n2)c(F)c1F` [Compound 510, (1S)-6-chloro-1-(2,3-difluoro-4-methylphenyl)-2-[4-(difluoromethyl)-6-(trifluoromethyl)-1,3,5-triazin-2-yl]-2,3,4,9-tetrahydro-1H-pyrido[3,4-b]indole] showed a pIC50 of 10.00. `Cc1ccc([C@H]2c3[nH]c4ccc(Cl)cc4c3CCN2c2nccc(C(F)(F)F)n2)cc1` [Compound 161, (1S)-6-chloro-1-(4-methylphenyl)-2-[4-(trifluoromethyl)pyrimidin-2-yl]-2,3,4,9-tetrahydro-1H-pyrido[3,4-b]indole] showed a pIC50 of 8.92. Compound `N#Cc1nc(N2CCc3c([nH]c4ccc(Cl)cc34)[C@@H]2c2ccc(N3CCOCC3)nc2)ncc1F` [Compound 400, 2-{(1S)-6-chloro-1-[6-(morpholin-4-yl)pyridin-3-yl]-1,3,4,9-tetrahydro-2H-pyrido[3,4-b]indol-2-yl}-5-fluoropyrimidine-4-carbonitrile] has a pIC50 of 8.64. For `Cc1ccc(C2c3[nH]c4ccc(Cl)c(F)c4c3CCN2c2ncc(Cl)cn2)cc1` (stereo not shown) [Compound 21, 6-chloro-2-(5-chloropyrimidin-2-yl)-5-fluoro-1-(4-methylphenyl)-2,3,4,9-tetrahydro-1H-pyrido[3,4-b]indole], the pIC50 was 8.01. For `CC(C)c1ccc(C2c3[nH]c4cc(F)c(Cl)cc4c3CCN2c2nccc(C#N)n2)cc1` (stereo not shown) [Compound 55, 2-{6-chloro-7-fluoro-1-[4-(propan-2-yl)phenyl]-1,3,4,9-tetrahydro-2H-pyrido[3,4-b]indol-2-yl}pyrimidine-4-carbonitrile], the pIC50 was 7.88. With `Cc1ccc(C2c3[nH]c4ccc(Cl)cc4c3CCN2c2nccc(Cl)n2)cc1` (stereo not shown) [Compound 10, 6-chloro-2-(4-chloropyrimidin-2-yl)-1-(4-methylphenyl)-2,3,4,9-tetrahydro-1H-pyrido[3,4-b]indole] the pIC50 was 8.39. Compound `Fc1ccc(C2c3[nH]c4ccc(Cl)c(F)c4c3CCN2c2nccc(C(F)(F)F)n2)cc1` (stereo not shown) [Compound 60, 6-chloro-5-fluoro-1-(4-fluorophenyl)-2-[4-(trifluoromethyl)pyrimidin-2-yl]-2,3,4,9-tetrahydro-1H-pyrido[3,4-b]indole] has a pIC50 of 8.03. `FC(F)(F)c1ccnc(N2CCc3c([nH]c4ccc(Cl)cc34)C2c2cnc(N3CCC3)nc2)n1` (stereo not shown) [Compound 344, 1-[2-(azetidin-1-yl)pyrimidin-5-yl]-6-chloro-2-[4-(trifluoromethyl)pyrimidin-2-yl]-2,3,4,9-tetrahydro-1H-pyrido[3,4-b]indole] was tested, and the pIC50 was 8.02. `Cc1nc(C)nc(N2CCc3c([nH]c4c(N)cc(Cl)cc34)C2c2ccc(N3CCOCC3)nc2)n1` (stereo not shown) [Compound 321, 6-chloro-2-(4,6-dimethyl-1,3,5-triazin-2-yl)-1-[6-(morpholin-4-yl)pyridin-3-yl]-2,3,4,9-tetrahydro-1H-pyrido[3,4-b]indol-8-amine] gave a pIC50 of 8.15. In the case of `Cc1ccc(C2c3[nH]c4ccc(Cl)c(F)c4c3CCN2c2nc(C#N)cc(C#N)n2)c(F)c1F` (stereo not shown) [Compound 229, 2-[6-chloro-1-(2,3-difluoro-4-methylphenyl)-5-fluoro-1,3,4,9-tetrahydro-2H-pyrido[3,4-b]indol-2-yl]pyrimidine-4,6-dicarbonitrile], the pIC50 was 8.72. `Cc1ccc([C@H]2c3[nH]c4ccc(Br)cc4c3CCN2c2nc(C(F)(F)F)cc(C(F)(F)F)n2)c(F)c1F` [Compound 518, (1S)-2-[4,6-bis(trifluoromethyl)pyrimidin-2-yl]-6-bromo-1-(2,3-difluoro-4-methylphenyl)-2,3,4,9-tetrahydro-1H-pyrido[3,4-b]indole] gave a pIC50 of 9.10. Compound `Cc1nc(N2CCc3c([nH]c4ccc(Cl)c(F)c34)C2c2ccc(CCCCO)cc2)ncc1F` (stereo not shown) [Compound 246, 4-{4-[6-chloro-5-fluoro-2-(5-fluoro-4-methylpyrimidin-2-yl)-2,3,4,9-tetrahydro-1H-pyrido[3,4-b]indol-1-yl]phenyl}butan-1-ol] has a pIC50 of 8.55. In the case of `Cc1nc(N2CCc3c([nH]c4cc(F)c(Cl)cc34)C2c2ccc(CCCCO)cc2)nc(C)c1F` (stereo not shown) [Compound 249, 4-{4-[6-chloro-7-fluoro-2-(5-fluoro-4,6-dimethylpyrimidin-2-yl)-2,3,4,9-tetrahydro-1H-pyrido[3,4-b]indol-1-yl]phenyl}butan-1-ol], the pIC50 was 8.66. With `Cc1ccc([C@H]2c3[nH]c4ccc(Cl)cc4c3CCN2c2nc(C)nc(C)n2)cc1` [Compound 402, (1S)-6-chloro-2-(4,6-dimethyl-1,3,5-triazin-2-yl)-1-(4-methylphenyl)-2,3,4,9-tetrahydro-1H-pyrido[3,4-b]indole] the pIC50 was 8.33. Compound `Fc1cncc(C2c3[nH]c4ccc(Cl)c(F)c4c3CCN2c2nccc(C(F)(F)F)n2)c1` (stereo not shown) [Compound 146, 6-chloro-5-fluoro-1-(5-fluoropyridin-3-yl)-2-[4-(trifluoromethyl)pyrimidin-2-yl]-2,3,4,9-tetrahydro-1H-pyrido[3,4-b]indole] has a pIC50 of 7.94. Work on `Fc1ccc(C2c3[nH]c4ccc(Cl)cc4c3CCN2c2ncc(Cl)cn2)cc1` (stereo not shown) [Compound 1, 6-chloro-2-(5-chloropyrimidin-2-yl)-1-(4-fluorophenyl)-2,3,4,9-tetrahydro-1H-pyrido[3,4-b]indole] yielded a pIC50 of 7.50.
